From US10639295B2 (priority 2016, dated 2020)
Where two headings read alike, the source gives them in different places.

Assays:
[1] = for concentration in the lung compared with 4′-demethylepipodophyllotoxin original drug group and etoposide control group: 5 minutes after administration by tail intravenous injection (FIG. 1); for time for which a relatively high drug concentration in the lung lasted (retention time in the lung): after tail intravenous injection; for drug concentration in the lung compared with 4′-demethylepipodophyllotoxin original drug group and etoposide control group: at each time point after tail intravenous injection (FIG. 2); for lung relative uptake rate Re (AUC0-t,lung compound / AUC0-t,lung drug) / peak concentration ratio Ce in the lung (Cmax,lung compound / Cmax,lung drug): versus 4′-demethylepipodophyllotoxin original drug group; for lung relative uptake rate Re (AUC0-t,lung compound / AUC0-t,lung drug) / peak concentration ratio Ce in the lung (Cmax,lung compound / Cmax,lung drug) / lung relative uptake rate Re (AUC0-t,lung compound / AUC0-t,lung control) / peak concentration ratio Ce in the lung (Cmax,lung compound / Cmax,lung control): tail intravenous injection; for lung relative uptake rate Re (AUC0-t,lung compound / AUC0-t,lung drug) / lung relative uptake rate Re (AUC0-t,lung compound / AUC0-t,lung control) / peak concentration ratio Ce in the lung (Cmax,lung compound / Cmax,lung control): equimolar doses; for peak concentration ratio Ce in the lung (Cmax,lung compound / Cmax,lung drug): equimolar to 10.00 mg/kg 4′-demethylepipodophyllotoxin; for lung relative uptake rate Re (AUC0-t,lung compound / AUC0-t,lung control) / peak concentration ratio Ce in the lung (Cmax,lung compound / Cmax,lung control): versus etoposide control group
Method: 16 mg of 4′-demethylepipodophyllotoxin was accurately weighed, 5% DMSO, 20% polyethylene glycol 400 and 20% absolute ethanol were added to help dissolution, so as to prepare an injection for intravenous injection with a concentration of 2 mg/mL. 28 mg of etoposide was accurately weighed, and 5% DMSO, 20% polyethylene glycol 400 and 20% absolute ethanol were added to help dissolution, so as to prepare an injection for intravenous injection with a concentration of 3.5 mg/mL. 30.40 mg of compound DC or DP was accurately weighed, and 5% DMSO, 20% polyethylene glycol 400 and 20% absolute ethanol were added to help dissolution, so as to prepare an injection for intravenous injection with a concentration of 3.8 mg/mL.
200 Kunming mice (male, 20±2 g) were used, which were fasted for 12 h before the experiment and given free access to water. In the experiment, they were randomly divided into 4 groups and administered by tail intravenous injection. The administration of 4′-demethylepipodophyllotoxin was carried out with a dosage of 10.00 mg/kg. Etoposide, compound DC and compound DP were administered in equimolar amount as 4′-demethylepipodophyllotoxin, and the administration dosages were etoposide 14.71 mg/kg, compound DC 15.78 mg/kg, and compound DP 15.38 mg/kg, respectively. 5 minutes, 15 minutes, 30 minutes, 1 hour, 2 hours, 4 hours, 8 hours, 12 hours, 24 hours and 48 hours after administration, the blood was collected and the mice sacrificed in all groups. The whole blood was put into sodium heparin-containing EP tubes, centrifuged at 5000 rpm at 4° C. for 5 min, and the upper plasma was collected and frozen at −40° C. for use. The hearts, livers, spleens, lungs, kidneys, brains and pancreas of the mice were immediately separated, and the residual blood was washed away with physiological saline. The remaining water on the surfaces of the organs was absorbed with filter papers. The organs were weighed and physiological saline 2 times the volume of the organs was added for homogenization.
0.1 mL of mouse plasma and 0.1 mL of tissue homogenate were taken and put into a 0.5 mL EP tube, 0.3 mL of methanol was added to all the samples as a protein precipitant. The sample was subjected to vortex vibration for 5 minutes, and then centrifuged at 13000 rpm at 4° C. for 10 min. The supernatant was taken and filtered with a 0.22 μm organic filtration membrane, and 1 μL of the sample was taken and subjected to LC-MS/MS analysis.
LC-MS/MS Analysis Condition
Liquid phase conditions: Agilent 1200 Series High Resolution Rapid LC System (RRLC); chromatographic column: Agilent Diamonsil ODS column (50 mm×4.6 mm, 1.8 μm); mobile phase: for 4′-demethylepipodophyllotoxin, methanol:0.1% formic acid aqueous solution=50:50, for etoposide, acetonitrile:0.1% formic acid aqueous solution=35:65, for compound DC, methanol:0.1% formic acid aqueous solution=[…], and for compound DP, methanol:0.1% formic acid aqueous solution=34:66; flow rate: 0.4 mL/min; column temperature: 30° C.; and injection volume: 1 μL.
Mass spectra conditions: Agilent Triple Quadrupole Mass Spectrometry (6410B); the analytes were subjected to a multiple reaction monitoring (MRM) in positive mode: for 4′-demethylepipodophyllotoxin, etoposide, compound DC and compound DP, fragmentation voltages were 97 V, 148 V, 190 V and 169 V, respectively; collision cell voltages were 20 V, 12 V, 52 V and 36 V, respectively; and ionic reactions (m/z) were 401.1→185, 589.2→229, 632.3→86.1 and 616.3→58.1, respectively; drying gas temperature: 350° C.; drying gas flow rate: 10 L/min; atomization air pressure: 30 psi; and the capillary voltage: 4000V.
Each pharmacokinetic parameters were calculated by DAS3.2.5 software, and the formula for calculating the targeting ability evaluation index, i.e., peak concentration ratio Ce and relative uptake rate Re, were shown hereinafter. Celung=(Cmax,lung)compound/(Cmax,lung)drug or control Relung=(AUC0-t,lung)compound/(AUC0-t,lung)drug or control

mouse melanoma B16 cells = type: in vivo, C57BL/6 mice; settings: intravenous injection, equimolar to 5.00 mg/kg 4′-demethylepipodophyllotoxin; for curative effect on lung metastatic tumor: 22nd day after modeling; for tumor-bearing lung weight / number of lung metastasis tumor nodules: sacrificed on the 22nd day; for tumor-bearing lung weight: compared with control group (FIG. 3); for number of lung metastasis tumor nodules: compared with control group (FIG. 4)
Method: The experiment was performed according to the method reported by Small, 2014(3):524-535. C57BL/6 mice (male, 20±2 g, 6 to 8 week-old) were used and intravenously injected with mouse melanoma B16 cells in logarithmic growth phase. 5×10^5 cells were injected into each mouse to establish a melanoma lung metastasis model, and the mice were randomly divided into 5 groups (recorded as the 0th day). The injections for intravenous injecting used in the experiment were prepared according to Example 6. On the 4th, 7th and 13th day after the modeling, each group was subjected to intravenous injection for […]. 4′-demethylepipodophyllotoxin was provided at a dosage of 5.00 mg/kg, and etoposide, compound DC and compound DP were provided at equimolar amount with 4′-demethylepipodophyllotoxin, and the administration dosages were etoposide 7.36 mg/kg, compound DC 7.89 mg/kg, and compound DP 7.69 mg/kg, respectively. The control group was administered with equal amount of solvent. All mice were housed normally and sacrificed on the 22nd day after modeling. The lung tissue was immediately separated out, washed with physiological saline and weighed, and the number of tumor nodules was calculated.

| concentration in the lung ([1]; mouse, in vivo, iv, 14.71 mg/kg) | SMILES | concentration in the lung ([1]; one hour after the administration, tail intravenous injection 10.00 mg/kg) | curative effect on lung metastatic tumor (mouse melanoma B16 cells) | tumor-bearing lung weight (mouse melanoma B16 cells) | number of lung metastasis tumor nodules (mouse melanoma B16 cells) | concentration in the lung compared with 4′-demethylepipodophyllotoxin original drug group and etoposide control group [1] | time for which a relatively high drug concentration in the lung lasted (retention time in the lung) [1] | drug concentration in the lung compared with 4′-demethylepipodophyllotoxin original drug group and etoposide control group [1] | lung relative uptake rate Re (AUC0-t,lung compound / AUC0-t,lung drug) [1] | peak concentration ratio Ce in the lung (Cmax,lung compound / Cmax,lung drug) [1] | lung relative uptake rate Re (AUC0-t,lung compound / AUC0-t,lung control) [1] | peak concentration ratio Ce in the lung (Cmax,lung compound / Cmax,lung control) [1] |
| --- | --- | --- | --- | --- | --- | --- | --- | --- | --- | --- | --- | --- |
|  | COc1cc(C2c3cc4c(cc3C(O)C3COC(=O)C23)OCO4)cc(OC)c1O (stereo not shown) [4′-demethylepipodophyllotoxin, reference compound] | below the detectable limit | improved the lung metastatic tumor to a certain degree | reduced the tumor-bearing lung weight | decreases the number of lung metastasis tumor nodules |  |  |  |  |  |  |  |
|  | COc1cc([C@@H]2c3cc4c(cc3[C@@H](NC(=O)c3ccc(CN(C)CCCN(C)C)cc3)[C@H]3COC(=O)[C@H]23)OCO4)cc(OC)c1O [compound DC] |  | best curative effects | least | least | much higher | up to 48 hours | much higher | 168.38 times | 5.29 times | 98.16 times | 4.54 times |
|  | COc1cc([C@@H]2c3cc4c(cc3[C@@H](NC(=O)c3ccc(CN5CCN(C)CC5)cc3)[C@H]3COC(=O)[C@H]23)OCO4)cc(OC)c1O [compound DP] |  | best curative effects | least | least | much higher | ≤ 12 h | much higher | 42.56 times | 5.41 times | 24.81 times | 4.65 times |
| below the detectable limit | COc1cc([C@@H]2c3cc4c(cc3[C@@H](O[C@@H]3O[C@@H]5CO[C@@H](C)O[C@H]5[C@H](O)[C@H]3O)[C@H]3COC(=O)[C@H]23)OCO4)cc(OC)c1O [etoposide, reference compound] |  | improved the lung metastatic tumor to a certain degree | reduced the tumor-bearing lung weight | decreases the number of lung metastasis tumor nodules |  |  |  |  |  |  |  |
